Experimental data: paper PMC9693073, “Two Subgroups within the GH43_36 α-L-Arabinofuranosidase Subfamily Hydrolyze Arabinosyl from Either Mono-or Disubstituted Xylosyl Units in Wheat Arabinoxylan” (International Journal of Molecular Sciences, 2022)

Target: T1, PoABF62 (Penicillium oxalicum, UniProt A0A2R4KZP3)
T1 construct: heterologously produced (fungal host), purified, supplied by Novozymes
Assay: HPAEC-PAD of hydrolysis products
Format: biochemical
Details: 10 mM ammonium acetate pH 5.0, 40 °C, 24 h, 100 μg/mL substrate

T1 sequence (A0A2R4KZP3 31-331): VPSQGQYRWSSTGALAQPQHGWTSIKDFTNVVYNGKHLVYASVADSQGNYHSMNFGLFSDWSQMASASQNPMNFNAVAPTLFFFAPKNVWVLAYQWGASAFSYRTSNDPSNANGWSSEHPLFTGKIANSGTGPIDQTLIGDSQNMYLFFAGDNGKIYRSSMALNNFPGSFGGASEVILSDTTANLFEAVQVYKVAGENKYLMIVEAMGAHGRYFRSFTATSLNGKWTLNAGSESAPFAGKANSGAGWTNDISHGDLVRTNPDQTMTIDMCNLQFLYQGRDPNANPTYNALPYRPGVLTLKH

Row | Structure (SMILES) | HPAEC-PAD of hydrolysis products | HPAEC-PAD of hydrolysis products (XA2XX/XA3XX mixture)
1 | OC[C@@H]1O[C@@H](O[C@H]2[C@H](O[C@@H]3CO[C@@H](O[C@@H]4COC(O)[C@H](O)[C@H]4O)[C@H](O)[C@H]3O)OC[C@@H](O)[C@@H]2O)[C@H](O)[C@H]1O (stereo partly drawn) [A2XX, 2-α-L-arabinofuranosyl-xylotriose] | PoABF62 and MgABF51 were highly active on all monosubstituted AXOS | –
2 | OC[C@@H]1O[C@@H](O[C@@H]2[C@@H](O)[C@H](O[C@@H]3CO[C@@H](O[C@@H]4COC(O)[C@H](O)[C@H]4O)[C@H](O)[C@H]3O)OC[C@H]2O[C@@H]2OC[C@@H](O)[C@H](O)[C@H]2O)[C@H](O)[C@H]1O (stereo partly drawn) [XA3XX, 3-α-L-arabinofuranosyl-xylotetraose] | – | PoABF62 and MgABF51 were highly active on all monosubstituted AXOS
